Measured values as given in ChEMBL document CHEMBL1137198, “Discovery of thiadiazoles as a novel structural class of potent and selective PDE7 inhibitors. Part 2: metabolism-directed optimization studies towards orally bioavailable derivatives” (Bioorg Med Chem Lett, 2004).
Values after ≈ are worked out from the molar mass of the structure shown.

Legend:
[1] = Clearance at 0.5 mg/kg i.v.; assay type: ADME, organism-based; set-up: dose 0.5 mg/kg, route intravenous; settings: in vivo, iv
[2] = Solubility at pH 7.4; assay type: physicochemical; settings: buffer
[3] = Half life at 2.5 mg/kg po.; assay type: ADME, organism-based; set-up: dose 2.5 mg/kg; settings: in vivo
[4] = Oral bioavailability (dose 2.5 mg/kg); assay type: ADME, organism-based; settings: eutheria, in vivo
[5] = Volume of distribution at 0.5 mg/kg i.v.; assay type: ADME, organism-based; set-up: dose 0.5 mg/kg, route intravenous; settings: in vivo, iv
[6] = Reduction in Clearance when compared with compound 1; assay type: ADME, organism-based; settings: in vivo
[7] = Reduction in clearance when compared with compound 1; assay type: ADME, organism-based; settings: in vivo
[8] = Inhibition of human Phosphodiesterase 7A1 or human phosphodiesterase 4D3 expressed in baculovirus infected Sf9 cells

Structure (SMILES)	clearance [1]	solubility ([2]; read-out: Solubility)	half-life [3]	bioavailability [4]	Vd ([5]; read-out: Vd)	CL_Ratio [6]	CL_Ratio [7]	Cl [1]	solubility [2]	T1/2 [3]	Vd [5]	IC50 [8]	F [4]
Cn1nc(-c2ccc(C(=O)NC(C)(C)CO)cc2)s/c1=N\C1CCCC(O)C1 (centres undefined)	24.9 mL/min/kg	58 µg/mL (≈ 143 µM)	0.46 h	63%	0.43 L/kg	86%							
Cn1nc(-c2ccc(C(N)=O)cc2)s/c1=N\C1CCCCC1	179 mL/min/kg	4 µg/mL (≈ 12.6 µM)			7.65 L/kg								
CN1CCN(C(=O)c2ccc(-c3nn(C)/c(=N/C4CCCCC4)s3)cc2)CC1	44.8 mL/min/kg	350 µg/mL (≈ 876 µM)	1.37 h	85%	2.59 L/kg	75%							
CC(=O)Nc1ccc(-c2nn(C)/c(=N/C3CCCCC3)s2)cc1	74.7 mL/min/kg	8 µg/mL (≈ 24.2 µM)	0.74 h	19.6%	3.3 L/kg	58%							
Cn1nc(-c2ccc(S(C)(=O)=O)cc2)s/c1=N\C1CCCC(O)C1 (stereo in doubt)	12.2 mL/min/kg	135 µg/mL (≈ 367 µM)	2 h	100%	0.92 L/kg	93%							
Cn1nc(-c2ccc(S(C)(=O)=O)cc2)s/c1=N\C1CCCC(O)C1 (stereo in doubt; 21a 9(R,R))						91%		15.1 mL/min/kg	160 µg/mL (≈ 435 µM)	2.5 h	0.62 L/kg		

Second part, the compound after the results:

clearance [1]	solubility ([2]; read-out: Solubility)	half-life [3]	bioavailability [4]	Vd ([5]; read-out: Vd)	CL_Ratio [6]	CL_Ratio [7]	Cl [1]	solubility [2]	T1/2 [3]	Vd [5]	IC50 [8]	F [4]	Structure (SMILES)
3.9 mL/min/kg	145 µg/mL (≈ 399 µM)	1.96 h	49.3%	0.18 L/kg									Cn1nc(-c2ccc(Cl)cc2)s/c1=N\c1ccc(F)c(C(=O)O)c1
66.9 mL/min/kg		0.27 h	7%	0.98 L/kg		62%							Cn1nc(-c2ccc(C(N)=O)cc2)s/c1=N\C1CCC(O)CC1 (centres undefined)
2.65 mL/min/kg	295 µg/mL (≈ 877 µM)	4.75 h	37%	0.99 L/kg									Cn1nc(-c2cccc(C#N)c2)s/c1=N\c1cccc(C(=O)O)c1
15.8 mL/min/kg	370 µg/mL (≈ 950 µM)	2.7 h	29.3%	7.58 L/kg									Cn1nc(-c2ccc(S(C)(=O)=O)cc2)s/c1=N\c1cccc(C(=O)O)c1
34.4 mL/min/kg		1.42 h		1.39 L/kg		81%					1650 nM	61.2%	Cn1nc(-c2ccc(C(N)=O)cc2)s/c1=N\C1CCCC(O)C1 (stereo in doubt; cis)
						67%	59.9 mL/min/kg		1.8 h	1.78 L/kg		38.5%	Cn1nc(-c2ccc(C(N)=O)cc2)s/c1=N\C1CCCC(O)C1 (stereo in doubt; trans)
38.2 mL/min/kg		0.31 h	24.7%	1.47 L/kg		79%							Cn1nc(-c2ccc(C(N)=O)cc2)s/c1=N\C1CCCCC1O (stereo in doubt; trans)
13.3 mL/min/kg	350 µg/mL (≈ 1010 µM)	2.3 h	76%	2.02 L/kg	92%								CC(=O)Nc1ccc(-c2nn(C)/c(=N/C3CCCC(O)C3)s2)cc1 (trans isomer)
